For assay [1], the target named is human alpha1 nicotinic acetylcholine (nACh) receptor (Homo sapiens, UniProt P02708). The assay can be described thus: Nicotinic acetylcholine receptor antagonism assay, IONFlux automated patch clamp (Example 203). The following applies: for IC50: antagonism of ACh-stimulated human alpha1 nAChR current, patch clamp; for Emax at 100 µM: maximum percentage antagonism at maximum concentration tested 100 μM; for Emax at 100 µM / Emax at 10 µM: read-out: Maximum Response; for Emax at 10 µM: maximum percentage antagonism at maximum concentration tested 10 μM. The format is cell-based. In a few lines:
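Cells expressing human α1 nAChR were incubated with a compound dose response (top 10 μM or 100 μM), then stimulated with ACh (10 mM), and peak current was read by automated patch clamp. % inhibition was taken against ACh-alone control, corrected for vehicle and run-down, and fit non-linearly for IC50; runs were averaged.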
For orientation: The patch-clamp technique gives a direct electrical read-out from membranes.

In assay [2] the test system is CCR2 expressing cells (CD11b+Ly6c+Hi) in peripheral blood. As to the kind of experiment: In vivo depletion assay, flow cytometry of peripheral blood (Example 201). Further details: species or system human CCR2 knock-in mice (C57 background). The conditions noted are these: hCCR2 knock-in mice, IV 0.1 mpk compound + 10 mpk anti-cotinine antibody (SEQ ID NO: 13/14), peripheral blood at 48 hr. In a few lines: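 Flow cytometry of blood collected at study termination quantified percent depletion of CD11b+Ly6c+Hi cells and CCR2 expression, using surface markers CD45, CD3, CD11b, Ly6C, human CCR2 after Fc block, with 7AAD viability stain. Compound given in saline:DMSO:PBS formulation, optionally combined with anti-cotinine antibody, incubated 30 min before administration.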
On the technique in general: Flow cytometry measures light scatter and fluorescence of single cells or particles in a stream.

Assay [3] addresses anti-cotinine antibody (SEQ ID NO: 11/12, rabbit variable region with human IgG1 Fc DE mutation). As to the kind of experiment: SPR binding of anti-cotinine antibody to ARM compounds, Biacore T200, 37° C. (Example 202). The conditions noted are these: SPR Biacore T200, 37° C., pH 7.4, antibody SEQ ID NO: 11/12 captured on protein A; Kd in molar. In a few lines:
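Run at 37 °C in 10 mM HEPES pH 7.4, 150 mM NaCl, 0.005% P20, 1% DMSO, with compounds titrated from 200 nM (five 3-fold steps) over protein A–captured antibody. A 1:1 kinetic model on double-referenced data gave rate constants, Kd as koff/kon and residence time 1/koff; results as pKd, run-averaged.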
(In general: Surface plasmon resonance follows binding to a sensor surface in real time, without labels.)

human alpha1 nicotinic acetylcholine (nACh) receptor, sequence (P02708 21-457): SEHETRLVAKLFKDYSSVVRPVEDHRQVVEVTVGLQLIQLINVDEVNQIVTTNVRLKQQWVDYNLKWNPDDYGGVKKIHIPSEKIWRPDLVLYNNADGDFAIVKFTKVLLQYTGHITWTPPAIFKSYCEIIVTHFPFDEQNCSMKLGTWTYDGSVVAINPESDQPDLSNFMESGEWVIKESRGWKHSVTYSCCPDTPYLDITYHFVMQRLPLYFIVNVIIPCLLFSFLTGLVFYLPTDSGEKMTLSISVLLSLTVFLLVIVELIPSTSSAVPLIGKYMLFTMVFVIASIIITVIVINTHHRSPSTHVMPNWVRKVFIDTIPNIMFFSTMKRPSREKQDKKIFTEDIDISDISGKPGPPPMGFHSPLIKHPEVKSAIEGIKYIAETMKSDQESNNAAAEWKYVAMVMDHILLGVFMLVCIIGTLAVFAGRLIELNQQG
human alpha1 nicotinic acetylcholine (nACh) receptor, sequence (P11230 24-501 partner): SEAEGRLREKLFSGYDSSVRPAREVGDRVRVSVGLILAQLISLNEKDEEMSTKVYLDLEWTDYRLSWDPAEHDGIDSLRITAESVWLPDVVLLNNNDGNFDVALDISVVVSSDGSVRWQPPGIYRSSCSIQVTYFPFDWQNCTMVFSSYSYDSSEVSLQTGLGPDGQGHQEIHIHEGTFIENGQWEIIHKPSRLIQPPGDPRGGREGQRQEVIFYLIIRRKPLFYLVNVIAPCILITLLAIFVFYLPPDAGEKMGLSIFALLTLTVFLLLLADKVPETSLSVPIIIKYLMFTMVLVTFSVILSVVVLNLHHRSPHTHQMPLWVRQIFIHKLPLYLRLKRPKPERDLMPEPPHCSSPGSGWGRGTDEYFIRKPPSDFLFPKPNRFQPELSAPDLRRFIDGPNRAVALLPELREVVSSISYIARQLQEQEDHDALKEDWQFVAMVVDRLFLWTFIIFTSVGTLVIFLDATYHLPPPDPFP
human alpha1 nicotinic acetylcholine (nACh) receptor, sequence (Q07001 22-517 partner): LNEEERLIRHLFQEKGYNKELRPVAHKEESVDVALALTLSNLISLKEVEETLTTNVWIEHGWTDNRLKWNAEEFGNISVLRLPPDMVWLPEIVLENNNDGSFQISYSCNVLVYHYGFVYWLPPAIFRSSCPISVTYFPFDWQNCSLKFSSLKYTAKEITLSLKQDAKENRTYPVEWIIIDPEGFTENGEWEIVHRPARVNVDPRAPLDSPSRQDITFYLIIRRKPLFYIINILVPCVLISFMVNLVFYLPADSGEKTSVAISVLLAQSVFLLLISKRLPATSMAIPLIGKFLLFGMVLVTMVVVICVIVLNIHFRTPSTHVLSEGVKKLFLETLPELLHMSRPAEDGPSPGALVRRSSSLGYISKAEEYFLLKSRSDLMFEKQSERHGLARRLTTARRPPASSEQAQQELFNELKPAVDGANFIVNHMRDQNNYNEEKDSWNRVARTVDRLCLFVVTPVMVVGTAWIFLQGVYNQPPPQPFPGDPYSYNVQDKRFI

In the case of `CC(C)N(C)[C@@H]1CC[C@H](N2CC[C@H](Nc3ncnc4ccc(C(F)(F)F)cc34)C2=O)[C@H](NC(=O)CCOCCNC(=O)COCCNC(=O)COCCNC(=O)[C@H]2CC(=O)N(C)[C@@H]2c2cccnc2)C1` [Example 102, (2S,3S)-N-(18-(((1R,2S,5R)-5-(Isopropyl(methyl)amino)-2-((S)-2-oxo-3-((6-(trifluoromethyl)quinazolin-4-yl)amino)pyrrolidin-1-yl)cyclohexyl)amino)-5,11,18-trioxo-3,9,15-trioxa-6,12-diazaoctadecyl)-1-methyl-5-oxo-2-(pyridin-3-yl)pyrrolidine-3-carboxamide], in assay [1], half-maximal inhibition (IC50) required 66.1 µM and the Emax at 100 µM came out at 61.3%. Further, the “% Depletion of CCR2 expressing cells” value in assay [2] was determined as 91%. In assay [3], the “pKd of Antibody for ARM Compound of Formula (I)” value (shortened to “pKd of Antibody”) turned out to be 9.076.

For `CC(C)N(C)[C@@H]1CC[C@H](N2CC[C@H](Nc3ncnc4ccc(C(F)(F)F)cc34)C2=O)[C@H](NC(=O)CCOCCNC(=O)CCOCCNC(=O)COCCNC(=O)[C@H]2CC(=O)N(C)[C@@H]2c2cccnc2)C1` [Example 105, (2S,3S)-N-(19-(((1R,2S,5R)-5-(Isopropyl(methyl)amino)-2-((S)-2-oxo-3-((6-(trifluoromethyl)quinazolin-4-yl)amino)pyrrolidin-1-yl)cyclohexyl)amino)-5,12,19-trioxo-3,9,16-trioxa-6,13-diazanonadecyl)-1-methyl-5-oxo-2-(pyridin-3-yl)pyrrolidine-3-carboxamide], in assay [1], inhibition was half-maximal at 38.9 µM (IC50) and the Emax at 100 µM is 75.7%. Besides, in assay [2], the “% Depletion of CCR2 expressing cells” value amounted to 95%. Moreover, the “pKd of Antibody” value in assay [3] was found to be 9.0705.

With `CC(C)N(C)[C@@H]1CC[C@H](N2CC[C@H](Nc3ncnc4ccc(C(F)(F)F)cc34)C2=O)[C@H](NC(=O)CCOCCNC(=O)[C@H]2CC[C@@H](NC(=O)COCCNC(=O)[C@H]3CC(=O)N(C)[C@@H]3c3cccnc3)CC2)C1` [Example 107, (2S,3S)-N-(2-(2-(((1S,4R)-4-((2-(3-(((1R,2S,5R)-5-(Isopropyl(methyl)amino)-2-((S)-2-oxo-3-((6-(trifluoromethyl)quinazolin-4-yl)amino)pyrrolidin-1-yl)cyclohexyl)amino)-3-oxopropoxy)ethyl)carbamoyl)cyclohexyl)amino)-2-oxoethoxy)ethyl)-1-methyl-5-oxo-2-(pyridin-3-yl)pyrrolidine-3-carboxamide], in assay [1], the IC50 is no less than 10 µM and the Emax at 10 µM was 12.2%. In assay [2], the “% Depletion of CCR2 expressing cells” value is given as 96%. The “pKd of Antibody” value in assay [3] stood at 9.161.

For `CC(C)N(C)[C@@H]1CC[C@H](N2CC[C@H](Nc3ncnc4ccc(C(F)(F)F)cc34)C2=O)[C@H](NC(=O)COCCNC(=O)COCCNC(=O)COCCNC(=O)[C@H]2CC(=O)N(C)[C@@H]2c2cccnc2)C1` [Example 111, (2S,3S)-N-(17-(((1R,2S,5R)-5-(Isopropyl(methyl)amino)-2-((S)-2-oxo-3-((6-(trifluoromethyl)quinazolin-4-yl)amino)pyrrolidin-1-yl)cyclohexyl)amino)-5,11,17-trioxo-3,9,15-trioxa-6,12-diazaheptadecyl)-1-methyl-5-oxo-2-(pyridin-3-yl)pyrrolidine-3-carboxamide], in assay [1], 52.9 µM corresponded to half-maximal inhibition (IC50) and the Emax at 100 µM is 67.6%. The “% Depletion of CCR2 expressing cells” value in assay [2] is listed as 50%. For the same compound, the “pKd of Antibody” value in assay [3] was 9.0855.

`CC(C)N(C)[C@@H]1CC[C@H](N2CC[C@H](Nc3ncnc4ccc(C(F)(F)F)cc34)C2=O)[C@H](NC(=O)[C@H]2CC[C@@H](NC(=O)CCCOCCCCOCCNC(=O)[C@H]3CC(=O)N(C)[C@@H]3c3cccnc3)CC2)C1` [Example 122, (2S,3S)-N-(2-(4-(4-(((1S,4s)-4-(((1R,2S,5R)-5-(Isopropyl(methyl)amino)-2-((S)-2-oxo-3-((6-(trifluoromethyl)quinazolin-4-yl)amino)pyrrolidin-1-yl)cyclohexyl)carbamoyl)cyclohexyl)amino)-4-oxobutoxy)butoxy)ethyl)-1-methyl-5-oxo-2-(pyridin-3-yl)pyrrolidine-3-carboxamide]: in assay [1], the IC50 is no less than 10 µM and the Emax at 10 µM was 23%. Further, the “% Depletion of CCR2 expressing cells” value in assay [2] is given as 94%. Further, in assay [3], the “pKd of Antibody” value came out at 9.146.

On to `CC(C)N(C)[C@@H]1CC[C@H](N2CC[C@H](Nc3ncnc4ccc(C(F)(F)F)cc34)C2=O)[C@H](NC(=O)CNC(=O)[C@H]2CC[C@@H](NC(=O)CCOCCOCCNC(=O)[C@H]3CC(=O)N(C)[C@@H]3c3cccnc3)CC2)C1` [Example 137, (2S,3S)-N-(2-(2-(3-(((1S,4s)-4-((2-(((1R,2S,5R)-5-(Isopropyl(methyl)amino)-2-((S)-2-oxo-3-((6-(trifluoromethyl)quinazolin-4-yl)amino)pyrrolidin-1-yl)cyclohexyl)amino)-2-oxoethyl)carbamoyl)cyclohexyl)amino)-3-oxopropoxy)ethoxy)ethyl)-1-methyl-5-oxo-2-(pyridin-3-yl)pyrrolidine-3-carboxamide], for which, in assay [1], the half-inhibitory concentration (IC50) turned out to be 70 µM and the Emax at 100 µM worked out at 62%. Further, in assay [2], the “% Depletion of CCR2 expressing cells” value amounted to 89%. Moreover, the “pKd of Antibody” value in assay [3] turned out to be 9.336.

On to `CC(C)N(C)[C@@H]1CC[C@H](N2CC[C@H](Nc3ncnc4ccc(C(F)(F)F)cc34)C2=O)[C@H](NC(=O)[C@H]2CC[C@@H](NC(=O)CCOCCNC(=O)CCNC(=O)CCNC(=O)[C@H]3CC(=O)N(C)[C@@H]3c3cccnc3)CC2)C1` [Example 182, (2S,3S)-N-(3-((3-((2-(3-(((1S,4s)-4-(((1R,2S,5R)-5-(Isopropyl(methyl)amino)-2-((S)-2-oxo-3-((6-(trifluoromethyl)quinazolin-4-yl)amino)pyrrolidin-1-yl)cyclohexyl)carbamoyl)cyclohexyl)amino)-3-oxopropoxy)ethyl)amino)-3-oxopropyl)amino)-3-oxopropyl)-1-methyl-5-oxo-2-(pyridin-3-yl)pyrrolidine-3-carboxamide], for which, in assay [1], the half-maximal inhibitory concentration (IC50) was 76.4 µM and the Emax at 100 µM was 61.9%. The “% Depletion of CCR2 expressing cells” value in assay [2] amounted to 97%. The “pKd of Antibody” value in assay [3] is 9.117.

Consider `CC(C)N(C)[C@@H]1CC[C@H](N2CC[C@H](Nc3ncnc4ccc(C(F)(F)F)cc34)C2=O)[C@H](NC(=O)CCOCCC(=O)N[C@H]2C[C@@H](C(=O)NCCOCCNC(=O)[C@H]3CC(=O)N(C)[C@@H]3c3cccnc3)C2)C1` [Example 186, (2S,3S)-N-(2-(2-((1S,3R)-3-(3-(3-(((1R,2S,5R)-5-(Isopropyl(methyl)amino)-2-((S)-2-oxo-3-((6-(trifluoromethyl)quinazolin-4-yl)amino)pyrrolidin-1-yl)cyclohexyl)amino)-3-oxopropoxy)propanamido)cyclobutane-1-carboxamido)ethoxy)ethyl)-1-methyl-5-oxo-2-(pyridin-3-yl)pyrrolidine-3-carboxamide], for which, in assay [1], the IC50 came out at 31.8 µM and the Emax at 100 µM worked out at 55.2%. The “% Depletion of CCR2 expressing cells” value in assay [2] is listed as 96%. For the same compound, the “pKd of Antibody” value in assay [3] is reported as 9.1435.

As for `CC(C)N(C)[C@@H]1CC[C@H](N2CC[C@H](Nc3ncnc4ccc(C(F)(F)F)cc34)C2=O)[C@H](NC(=O)CCOCCC(=O)N[C@H]2C[C@H](C(=O)NCCOCCNC(=O)[C@H]3CC(=O)N(C)[C@@H]3c3cccnc3)C2)C1` [Example 187], in assay [1], half-maximal inhibition (IC50) required 71.1 µM and the Emax at 100 µM stood at 63.7%. In addition, in assay [2], the “% Depletion of CCR2 expressing cells” value is on record as 92%. For the same compound, the “pKd of Antibody” value in assay [3] is recorded as 9.104.

In the case of `CN1C(=O)C[C@H](C(=O)NCCOCCNC(=O)[C@H]2C[C@H](NC(=O)CCOCCC(=O)N[C@@H]3C[C@H](NC(C)(C)C)CC[C@@H]3N3CC[C@H](Nc4ncnc5ccc(C(F)(F)F)cc45)C3=O)C2)[C@H]1c1cccnc1` [Example 188, (2S,3S)-N-(2-(2-((1R,3S)-3-(3-(3-(((1R,2S,5R)-5-(tert-butylamino)-2-((S)-2-oxo-3-((6-(trifluoromethyl)quinazolin-4-yl)amino)pyrrolidin-1-yl)cyclohexyl)amino)-3-oxopropoxy)propanamido)cyclobutane-1-carboxamido)ethoxy)ethyl)-1-methyl-5-oxo-2-(pyridin-3-yl)pyrrolidine-3-carboxamide], in assay [1], the midpoint of inhibition, the IC50, lay at 85.9 µM and the Emax at 100 µM was determined as 53.5%. For the same compound, in assay [2], the “% Depletion of CCR2 expressing cells” value amounted to 91%. In addition, the “pKd of Antibody” value in assay [3] is reported as 8.975.

The term IC50 denotes the point on the concentration scale where inhibition reaches its midpoint. Low readings indicate higher potency, high ones lower potency.

For the origin of these results see patent US12521393B2, “Cytotoxicity targeting chimeras for CCR2-expressing cells” (GLAXOSMITHKLINE INTELLECTUAL PROPERTY DEVELOPMENT LIMITED, priority 2021, dated 2026).
